Data set [1] concerns murine fibroblasts. The settings on record: cited from earlier work.
The subject of data set [2] is S. aureus. The following applies: cited from earlier work.
Data set [3] has as its system mammalian cell. The following applies: cited from earlier work.
For data set [4], the system named is murine fibroblasts and test microorganisms (Escherichia coli and Staphylococcus aureus). The following applies: cited from earlier work.
Data set [5] deals with E. coli. The settings on record: cited from earlier work.
The subject of data set [6] is murine fibroblasts and test microorganisms (Escherichia coli and Staphylococcus aureus).
Text: The term “biocompatibility index” is defined by the active agent's effective biological activity and its cytotoxic effect on human or animal cells. […] The biocompatibility index will take into account both the results of the in vitro cytotoxicity, i.e., the concentration at which 50% of the murine fibroblasts are damaged, and the microbial effect, i.e., the concentration at which the baseline burden of the test microorganisms (e.g., Escherichia coli and Staphylococcus aureus) is reduced by at least 3 log 10 (99.9%). A biocompatibility index greater than 1 represent an antibacterial substance with an effective microbicidal activity combined with a relatively low cytotoxicity. […] A biocompatibility index less than 1 indicates an antimicrobial agent with a relatively high cytotoxicity in a defined medium.
The conditions of data set [7]: literature values; cited from earlier work.
The subject of data set [8] is human keratinocyte. The following applies: cited from earlier work.
The subject of data set [9] is S. mutans. As to the kind of experiment: Antimicrobial studies against S. mutans. The data set is classed as cell-based. From the text:
According to an embodiment, the amphiphilic biologically active agent may be a synthetic, natural or derived compound having properties for treating or preventing a disease or illness, including: pharmaceutical drugs, pharmaceutical conjugated drugs, pharmaceutical prodrugs, antimicrobial or antiseptic agents, antifungal agents, peptides, DNA or any combinations thereof, which when introduced into the body causes a desired biological response. According to another embodiment, the amphiphilic biologically active agent may be an active agent with a suitable biocompatibility index. Such biologically active agent may have a biocompatibility index greater than 1. According to another embodiment, the preferred amphiphilic biologically active agent may be an antibacterial agent. According to a further embodiment, the most preferred amphiphilic biologically active agent may be the antibacterial agent OCT. OCT is an amphiphilic antiseptic agent with a biocompatibility index of greater than 1. OCT has shown a broad range of efficacy against gram positive and negative bacteria and is used currently as a mouth rinse, wound cleansing agent, topical antiseptic, and for other applications. The CMC of OCT was determined to be 3.79 mM.

Converted amounts (≈) assume the structure as drawn. Counter-ions that a name gives are not always drawn. Like-named read-outs stand apart in the source and are kept apart here.

With `CCCCCCCCCCCCCCCC[N+](C)(C)C.[Br-]` [CTAB, cetyltrimethylammonium bromide], the “concentration for 50% reduction in murine fibroblasts” value in [1] is 2 µg/mL. The “minimum inhibitory concentration (MIC) against S. aureus” value in data set [2] was 16 µg/mL. Moreover, the “concentration able to reduce mammalian cell viability” value in data set [3] is “less than 1 μM”. In [4], the biocompatibility index result is recorded as “less than 1”.
Take `CCCCCCCCCCCC(=O)N[C@@H](CCCN=C(N)N)C(=O)OCC` [LAE, lauric arginate]: the “MIC against E. coli” value in data set [5] was 11.8 µg/mL (≈ 30.7 µM). Moreover, the biocompatibility index in [6] was 5.33. For the same compound, the CMC in data set [7] is listed as 4.9 mM. For the same compound, in data set [8], the “concentration for 50% reduction of human keratinocyte growth” value was 63 µg/mL.
With `CCCCCCCCN=c1ccn(CCCCCCCCCCn2ccc(=NCCCCCCCC)cc2)cc1` [OCT, octenidine dihydrochloride], in data set [9], the “antimicrobial activity compared with CHX” value was “compared favorably with CHX”.
For the compound benzalkonium chloride, the biocompatibility index in data set [4] is 0.79.
Take polyhexamethylene biguanide [PHMB]: the CMC in data set [7] was 20 to 50 mM. For the same compound, in data set [4] (reported in literature), the biocompatibility index is on record as 1.36.

The values are drawn from patent US12220467B2, “Highly loaded metal oxide materials by self-assembly for extended biologically active molecule release in medical and dental applications” (MESOSIL INC., priority 2016, dated 2025).
